From patent publication EP0318620A1, “Herbicidal sulfonamides” (E.I. DU PONT DE NEMOURS AND COMPANY, priority 1987, dated 1989)

Legend:
wild oats = assay: Test A greenhouse herbicide test, pre- and postemergence; assay type: in vivo, Avena fatua; conditions: PREEMERGENCE; RATE 0.01 KG/HA; rated after sixteen days
Description: (§1) Seeds of crabgrass (Digitaria spp.), barnyardgrass (Echinochloa crusgalli), cheatgrass (Bromus Secalinus), giant foxtail (Setaria faberii), wild oats (Avena fatua), velvetleaf (Abutilon theophrasti), morningglory (Ipomoea spp. , cocklebur (Xanthium pensylvanicum). sorghum, corn, barley, soybean, sugarbeet, cotton, rice, wheat and purple nutsedge (Cyperus rotundus) tubers were planted and treated preemergence with the test chemicals dissolved in a non-phytotoxic solvent. At the same time, these crop and weed species were treated with a soil/foliage application. At the time of treatment, the plants ranged in height from 2 to 18 cm. Treated plants and controls were maintained in a greenhouse for sixteen days, after which all species were compared to controls and visually rated for response to treatment. The ratings, summarized in Table A, are based on a numerical scale extending from 0 = no injury, to 10 = complete kill. The accompanying descriptive symbols have the following meanings: • B = burn; • C = chlorosis/necrosis; • D = defoliation; • E = emergence inhibition; • G = growth retardation; • H = formative effect; • U = unusual pigmentation; • X = axillary stimulation; • S = albinism; and • 6Y = abscised buds or flowers.

cocklebur [1] = assay: Test B pan test in Sassafras sandy loam soil, pre- and postemergence; assay type: in vivo, Xantium pensyivanicum; conditions: scale 0 to 100
Description: (§2) Three round pans (25 cm diameter by 12.5 cm deep) were filled with Sassafras sandy loam soil. One pan was planted with nutsedge (Cyperus rotundus) tubers, crabgrass (Digitaria sanguinalis), sicklepod (Cassia obtusifolia), jimsonweed (Datura stramonium), velvetleaf (Abutilon theophrasti), lambsquarters (Chenopodim album), rice (Oryza sativa) and teaweed (Sida spinosa). The second pot was planted with green foxtail (Setaria viridis), cocklebur (Xantium pensyivanicum), morningglory (lpomoea hederacea), cotton (Gossypium hirsutum), johnsongrass (Sorghum halepense), barnyardgrass (Echinochloa crusgalli), corn (Zea mays), soybean (Glycine max) and giant foxtail (Setaria faberi). The third pot was planted with wheat (Triticum aestivum), barley (Hordeum vulgare), wild buckwheat (Polgonum convolvulus L.), cheatgrass (Bromus secalinus L.), sugarbeet (Beta vulgaris), wild oats (Avena fatua), viola (Viola arvensis), blackgrass (Alopecurus myosuroides), and rape (Brassica napus). The plants were grown for approximately fourteen days, then sprayed postemergence with the chemicals dissolved in a non-phytotoxic solvent.
(§3) Three round pans (25 cm diameter by 12.5 cm deep) were filled with Sassafras sandy loam soil. One pan was planted with nutsedge tubers, crabgrass, sicklepod, jimsonweed, velvetleaf, lambsquarters, rice and teaweed. The second pot was planted with green foxtail, cocklebur, morningglory, cottom, johnsongrass, . barnyardgrass, corn, soybean and giant foxtail. The third pot was planted with wheat, barley, wild buckwheat, cheatgrass, sugarbeet, wild oat, viola, blackgrass and rape. The three pans were sprayed preemer gence with the chemicals dissolved in a non-phytotoxic solvent.
(§4) Treated plants and controls were maintained in the greenhouse for 24 days, then all rated plants were compared to controls and visually rated for plant response.
(§5) A dash (-) response means no test.

cheatgrass = assay: Test A greenhouse herbicide test, pre- and postemergence; assay type: in vivo, Bromus Secalinus; conditions: rated after sixteen days
Description: as §1

barnyardgrass = assay: as above; assay type: in vivo, Echinochloa crusgalli; conditions: rated after sixteen days
Description: as §1

soybean [2] = assay: Test B pan test in Sassafras sandy loam soil, pre- and postemergence; assay type: in vivo, Glycine max; conditions: scale 0 to 100
Description: as §2, §3, §4, §5

corn = assay: Test A greenhouse herbicide test, pre- and postemergence; assay type: in vivo; conditions: rated after sixteen days
Description: as §1

sugarbeet = assay: as above; assay type: in vivo; conditions: POSTEMERGENCE, rated after sixteen days
Description: as §1

soybean [3] = assay: as above; assay type: in vivo; conditions: rated after sixteen days
Description: as §1

cotton = assay: as above; assay type: in vivo; conditions: rated after sixteen days
Description: as §1

rice [4] = assay: as above; assay type: in vivo; conditions: rated after sixteen days
Description: as §1

sorghum = assay: as above; assay type: in vivo; conditions: POSTEMERGENCE; RATE 0.05 KG/HA; rated after sixteen days
Description: as §1

cocklebur [5] = assay: as above; assay type: in vivo, Xanthium pensylvanicum; conditions: POSTEMERGENCE, rated after sixteen days
Description: as §1

velvetleaf [6] = assay: Test B pan test in Sassafras sandy loam soil, pre- and postemergence; assay type: in vivo, Abutilon theophrasti; conditions: scale 0 to 100
Description: as §2, §3, §4, §5

purple nutsedge = assay: Test A greenhouse herbicide test, pre- and postemergence; assay type: in vivo, Cyperus rotundus; conditions: rated after sixteen days
Description: as §1

velvetleaf [7] = assay: as above; assay type: in vivo, Abutilon theophrasti; conditions: rated after sixteen days
Description: as §1

nutsedge = assay: Test B pan test in Sassafras sandy loam soil, pre- and postemergence; assay type: in vivo, Cyperus rotundus; conditions: scale 0 to 100
Description: as §2, §3, §4, §5

rice [8] = assay: as above; assay type: in vivo, Oryza sativa; conditions: scale 0 to 100
Description: as §2, §3, §4, §5

wild buckwheat = assay: as above; assay type: in vivo, Polgonum convolvulus L.; conditions: scale 0 to 100
Description: as §2, §3, §4, §5

For `CCOC(=O)c1c(CC#N)cccc1S(=O)(=O)NC(=O)Nc1nc(OC)cc(OC)n1` [Compound 3, 2-(cyanomethyl)-6 [[(4,6-dimethoxypyrimidin-2-yl)-aminocarbonyl]aminosulfonyl]benzoic acid, ethyl ester], the “WILD OATS visual rating of response to treatment” value (wild oats) was 3G, the COCKLEBUR response rating (cocklebur [1]; POSTEMERGENCE, RATE 0001 G/HA) was 70 and the COCKLEBUR response rating (cocklebur [1]; POSTEMERGENCE, RATE 0004 G/HA) was 80. It also gave a COCKLEBUR response rating (cocklebur [1]; POSTEMERGENCE, RATE 0016 G/HA) of 90, a COCKLEBUR response rating (cocklebur [1]; POSTEMERGENCE, RATE 0062 G/HA) of 100 and a COCKLEBUR response rating (cocklebur [1]; PREEMERGENCE, RATE 0004 G/HA) of 30. For the same compound, the COCKLEBUR response rating (cocklebur [1]; PREEMERGENCE, RATE 0016 G/HA) was 60, the COCKLEBUR response rating (cocklebur [1]; PREEMERGENCE, RATE 0062 G/HA) was 90 and the “CHEATGRASS visual rating of response to treatment” value (“CHEATGRASS visual rating” below) (cheatgrass; POSTEMERGENCE, RATE 0.01 KG/HA) was 6G. For the same compound, the “CHEATGRASS visual rating” value (cheatgrass; PREEMERGENCE, RATE 0.01 KG/HA) was 5G, the “CHEATGRASS visual rating” value (cheatgrass; PREEMERGENCE, RATE 0.05 KG/HA) was 8H and the “BARNYARD GRASS visual rating of response to treatment” value (from here on “BARNYARD GRASS visual rating”) (barnyardgrass; POSTEMERGENCE, RATE 0.01 KG/HA) was 9C. For the same compound, the “BARNYARD GRASS visual rating” value (barnyardgrass; POSTEMERGENCE, RATE 0.05 KG/HA) was 10C, the “BARNYARD GRASS visual rating” value (barnyardgrass; PREEMERGENCE, RATE 0.01 KG/HA) was 2G and the SOYBEAN response rating (soybean [2]; POSTEMERGENCE, RATE 0001 G/HA) was 90. For the same compound, the SOYBEAN response rating (soybean [2]; POSTEMERGENCE, RATE 0004 G/HA) was 100, the SOYBEAN response rating (soybean [2]; POSTEMERGENCE, RATE 0016 G/HA) was 100 and the SOYBEAN response rating (soybean [2]; POSTEMERGENCE, RATE 0062 G/HA) was 100. It also gave an SOYBEAN response rating (soybean [2]; PREEMERGENCE, RATE 0004 G/HA) of 0, an SOYBEAN response rating (soybean [2]; PREEMERGENCE, RATE 0016 G/HA) of 20 and an SOYBEAN response rating (soybean [2]; PREEMERGENCE, RATE 0062 G/HA) of 40. The “CORN visual rating of response to treatment” value (corn; POSTEMERGENCE, RATE 0.01 KG/HA) was 10C, the “CORN visual rating of response to treatment” value (corn; PREEMERGENCE, RATE 0.05 KG/HA) was 9H and the “SUGAR BEETS visual rating of response to treatment” value (sugarbeet; RATE 0.01 KG/HA) was 10C. For the same compound, the “SUGAR BEETS visual rating of response to treatment” value (sugarbeet; RATE 0.05 KG/HA) was 10C, the “SOYBEAN visual rating of response to treatment” value (soybean [3]; POSTEMERGENCE, RATE 0.05 KG/HA) was 9C and the “SOYBEAN visual rating of response to treatment” value (soybean [3]; PREEMERGENCE, RATE 0.01 KG/HA) was 5G. The “COTTON visual rating of response to treatment” value (shortened to “COTTON visual rating”) (cotton; POSTEMERGENCE, RATE 0.01 KG/HA) was 9C, the “COTTON visual rating” value (cotton; POSTEMERGENCE, RATE 0.05 KG/HA) was 10C and the “COTTON visual rating” value (cotton; PREEMERGENCE, RATE 0.01 KG/HA) was 3G. For the same compound, the “RICE visual rating of response to treatment” value (“RICE visual rating of response” below) (rice [4]; POSTEMERGENCE, RATE 0.01 KG/HA) was 9C, the “RICE visual rating of response” value (rice [4]; POSTEMERGENCE, RATE 0.05 KG/HA) was 9C and the “RICE visual rating of response” value (rice [4]; PREEMERGENCE, RATE 0.01 KG/HA) was 3G. The “SORGHUM visual rating of response to treatment” value (sorghum) was 9C, the “COCKLEBUR visual rating of response to treatment” value (cocklebur [5]; RATE 0.01 KG/HA) was 10C and the “COCKLEBUR visual rating of response to treatment” value (cocklebur [5]; RATE 0.05 KG/HA) was 10C. For the same compound, the VELVETLEAF response rating (velvetleaf [6]; POSTEMERGENCE, RATE 0001 G/HA) was 70, the VELVETLEAF response rating (velvetleaf [6]; POSTEMERGENCE, RATE 0004 G/HA) was 100 and the VELVETLEAF response rating (velvetleaf [6]; POSTEMERGENCE, RATE 0016 G/HA) was 100. It also gave a VELVETLEAF response rating (velvetleaf [6]; POSTEMERGENCE, RATE 0062 G/HA) of 100, a VELVETLEAF response rating (velvetleaf [6]; PREEMERGENCE, RATE 0004 G/HA) of 0 and a VELVETLEAF response rating (velvetleaf [6]; PREEMERGENCE, RATE 0016 G/HA) of 30. The VELVETLEAF response rating (velvetleaf [6]; PREEMERGENCE, RATE 0062 G/HA) was 50, the “NUTSEDGE visual rating of response to treatment” value (“NUTSEDGE visual rating” below) (purple nutsedge; POSTEMERGENCE, RATE 0.01 KG/HA) was 10C and the “NUTSEDGE visual rating” value (purple nutsedge; POSTEMERGENCE, RATE 0.05 KG/HA) was 10C. For the same compound, the “NUTSEDGE visual rating” value (purple nutsedge; PREEMERGENCE, RATE 0.01 KG/HA) was 4G, the “NUTSEDGE visual rating” value (purple nutsedge; PREEMERGENCE, RATE 0.05 KG/HA) was 9G and the “VELVETLEAF visual rating of response to treatment” value (from here on “VELVETLEAF visual rating”) (velvetleaf [7]; POSTEMERGENCE, RATE 0.01 KG/HA) was 10C. For the same compound, the “VELVETLEAF visual rating” value (velvetleaf [7]; POSTEMERGENCE, RATE 0.05 KG/HA) was 10C, the “VELVETLEAF visual rating” value (velvetleaf [7]; PREEMERGENCE, RATE 0.01 KG/HA) was 2H and the “VELVETLEAF visual rating” value (velvetleaf [7]; PREEMERGENCE, RATE 0.05 KG/HA) was 5H. The NUTSEDGE response rating (nutsedge; POSTEMERGENCE, RATE 0001 G/HA) was 100, the NUTSEDGE response rating (nutsedge; POSTEMERGENCE, RATE 0004 G/HA) was 100 and the NUTSEDGE response rating (nutsedge; POSTEMERGENCE, RATE 0016 G/HA) was 100. For the same compound, the NUTSEDGE response rating (nutsedge; POSTEMERGENCE, RATE 0062 G/HA) was 100, the NUTSEDGE response rating (nutsedge; PREEMERGENCE, RATE 0004 G/HA) was 0 and the NUTSEDGE response rating (nutsedge; PREEMERGENCE, RATE 0016 G/HA) was 30. It also gave an NUTSEDGE response rating (nutsedge; PREEMERGENCE, RATE 0062 G/HA) of 70, an RICE response rating (rice [8]; POSTEMERGENCE, RATE 0001 G/HA) of 60 and an RICE response rating (rice [8]; POSTEMERGENCE, RATE 0004 G/HA) of 90. For the same compound, the RICE response rating (rice [8]; POSTEMERGENCE, RATE 0016 G/HA) was 100, the RICE response rating (rice [8]; POSTEMERGENCE, RATE 0062 G/HA) was 100 and the RICE response rating (rice [8]; PREEMERGENCE, RATE 0004 G/HA) was 0. For the same compound, the RICE response rating (rice [8]; PREEMERGENCE, RATE 0016 G/HA) was 30, the RICE response rating (rice [8]; PREEMERGENCE, RATE 0062 G/HA) was 80 and the “WILD BUCKWHEAT response rating” value (wild buckwheat; POSTEMERGENCE, RATE 0001 G/HA) was 30. For the same compound, the “WILD BUCKWHEAT response rating” value (wild buckwheat; POSTEMERGENCE, RATE 0004 G/HA) was 60, the “WILD BUCKWHEAT response rating” value (wild buckwheat; POSTEMERGENCE, RATE 0016 G/HA) was 90 and the “WILD BUCKWHEAT response rating” value (wild buckwheat; POSTEMERGENCE, RATE 0062 G/HA) was 100. For the same compound, the “WILD BUCKWHEAT response rating” value (wild buckwheat; PREEMERGENCE, RATE 0004 G/HA) was 50, the “WILD BUCKWHEAT response rating” value (wild buckwheat; PREEMERGENCE, RATE 0016 G/HA) was 70 and the “WILD BUCKWHEAT response rating” value (wild buckwheat; PREEMERGENCE, RATE 0062 G/HA) was 90.
